Series [1] relates to Differentiated U937 cells. Put plainly: MTT assay: cell viability. Particulars: 1 μg/ml; for d-U937 MTT Assay 4 h: 5% FCS; for d-U937 MTT Assay 24 h: 10% FCS. It counts as cell-based, human. In outline:
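Differentiated U937 cells pre-incubated with compound either 4 hr in 5% FCS or 24 h in 10% FCS, then 1 hr MTT. Formazan dissolved in DMSO, absorbance at 550 nm. Percentage viability loss relative to 0.5% DMSO vehicle; apparent increases appear as negative percentages.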

Series [2] deals with p38 MAPK γ (MAPK12) (Homo sapiens (Human), UniProt P53778). Put plainly: Enzyme inhibition assay (FRET, Z-LYTE), p38 MAPK gamma. The series is classed as biochemical. Particulars: read-out: Enzyme Profile: IC50 Values p38γ. In outline: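 Recombinant phosphorylated human p38γ preincubated with compound 2 hr at RT in HEPES buffer, then reacted 1 hr with 2 μM FRET peptide and 100 μM ATP. Protease development 1 hr; phosphorylation derived from coumarin/fluorescein emission ratio.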

Series [3] addresses cSrc enzyme (Homo sapiens (Human), UniProt P12931). Put plainly: c-SRC enzyme inhibition assay (FRET, Z'-LYTE). The following applies: read-out: Enzyme Profile: IC50 Values cSrc. The series is classed as biochemical.
The target of series [4] is HCK enzyme (Homo sapiens (Human), UniProt P08631). In words: HCK enzyme inhibition assay (FRET, Z'-LYTE). It counts as biochemical. The following applies: read-out: Enzyme Profile: IC50 Values HCK.
Series [5] has as its system TNFα release in d-U937 cells. In words: LPS-induced TNFα release in d-U937 cells. The series is classed as cell-based. Particulars: Homo sapiens, dU937, LPS 0.1 μg/mL, 4 hr, relative to 10 μg/mL BIRB796, read-out: d-U937 (LPS) TNFα REC50. The procedure, abridged: (§1)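 U937 cells made macrophage-like by 48–72 h with PMA (100 ng/mL), then stimulated with LPS (E. coli O111:B4) for 4 h. Supernatant TNFα and IL-8 measured by sandwich ELISA; inhibition versus vehicle control at each concentration, REC50 from concentration-response curve.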

Series [6] has as its system ICAM-1 expression in BEAS2B cells. Put plainly: Poly I:C-induced ICAM-1 induction in BEAS2B cells. It counts as cell-based. Particulars: Homo sapiens, BEAS-2B; BEAS2B cells, poly I:C 1 μg/mL, 18 hr; read-out: BEAS2B (polyIC) ICAM1 IC50. In outline:
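Human bronchial epithelial BEAS2B cells pre-incubated 2 hr with test compounds at final concentrations, then transfected with poly I:C (1 μg/mL) using Oligofectamine. Cell-surface ICAM-1 quantified by cell-based ELISA with HRP-conjugated anti-rabbit IgG secondary.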

In series [7] the test system is HRV16. Put plainly: Rhinovirus-titre assay. It counts as cell-based, human rhinovirus. Particulars: HRV16; for inhibition at 0.04 µg/mL: Human rhinovirus sp., cell not marked b, test compounds 0.04 μg/mL per method (footnote b, 0.2 μg/mL), read-out: HRV titre (inhibitory %): % inhibition observed vs. HRV16 infection control.
In series [8] the test system is TNFα release in THP-1 cells. Put plainly: LPS-induced TNFα release in THP-1 cells. The series is classed as cell-based. The following applies: Homo sapiens; THP-1 cells, LPS 3 μg/mL, 4 hr; read-out: THP1 (LPS) TNFα IC50. As for the experimental part:
The inhibition of TNFα production was calculated at each concentration by comparison with vehicle control.

Series [9] concerns the target p38 MAPK alpha (MAPK14) (Homo sapiens (Human), UniProt Q16539). Put plainly: Enzyme inhibition assay (FRET, Z-LYTE), p38 MAPK alpha via MAPKAP-K2 activation. It counts as biochemical. Particulars: read-out: Enzyme Profile: IC50 Values p38α. As for the experimental part:
The enzyme inhibitory activity of test compounds was determined by fluorescence resonance energy transfer (FRET) using synthetic peptides labelled with both donor and acceptor fluorophores (Z-LYTE, Invitrogen). Recombinant, phosphorylated p38 MAPK γ (MAPK12:Millipore) was diluted in HEPES buffer, mixed with compound at the desired final concentrations and incubated for 2 hr at RT. The FRET peptide (2 μM) and ATP (100 μM) were next added to the enzyme/compound mixture and incubated for 1 hr. Development reagent (protease) was added for 1 hr prior to detection in a fluorescence microplate reader. The site-specific protease only cleaves non-phosphorylated peptide and eliminates the FRET signal. Phosphorylation levels of each reaction were calculated using the ratio of coumarin emission (donor) over fluorescein emission (acceptor) with high ratios indicating high phosphorylation levels and low ratios indicating low phosphorylation levels.
For p38 MAPK alpha (MAPK14: Invitrogen), enzyme activity was evaluated indirectly by determining activation/phosphorylation of the down-stream molecule, MAPKAP-K2. The p38 MAPK a protein was mixed with compound for 2 hr at RT. […] Development reagent was then added and the mixture incubated for 1 hr before detection by fluorescence completed the assay protocol.
The enzyme inhibitory activity of compound was determined by fluorescence resonance energy transfer (FRET) using synthetic peptides labelled with both donor and acceptor fluorophores (Z′-LYTE, Invitrogen).

Series [10] concerns IL-8 release in d-U937 cells. Put plainly: LPS-induced IL-8 release in d-U937 cells. The series is classed as cell-based. Particulars: Homo sapiens, dU937; d-U937 cells, LPS 0.1 μg/mL, 4 hr; read-out: d-U937 (LPS) IL-8 IC50. The procedure, abridged: as §1

Usually IC50 stands for the point on the concentration scale where inhibition reaches its midpoint. As usually defined, the inhibition is the change of the read-out against control, counted positive when it falls. As to `CCn1c(=O)[nH]c2nccc(Oc3ccc(NC(=O)Nc4cc(C(C)(C)C)nn4-c4ccc(OC)cc4)c4ccccc34)c21` [Example 11], in series [1], the “d-U937 MTT Assay 4 h” value is “− (− and + indicate the result is below and above the no significant effect threshold, respectively (<30% inhibition at a concentration of 1 μg/ml))”. The “d-U937 MTT Assay 24 h” value in series [1] is “− (− and + indicate the result is below and above the no significant effect threshold, respectively (<30% inhibition at a concentration of 1 μg/ml))”. Besides, the IC50 in series [2] came to 0.348 µM; in series [3] it was 0.009 µM; in series [4] it was 0.005 µM; in [6], 0.0036 µM; in series [8], 0.004 µM; in series [9], 0.002 µM. For the same compound, the IC50 in series [10] is 0.0016 µM. In addition, the EC50 in series [5] was 0.0007 µM. The inhibition at 0.04 µg/mL in series [7] was determined as 60%.
For `COc1ccc(-n2nc(C(C)(C)C)cc2NC(=O)Nc2ccc(Oc3ccnc4[nH]c(=O)n(C(C)C)c34)c3ccccc23)cc1` [Example 12], in series [1], the “d-U937 MTT Assay 4 h” value is “− (− and + indicate the result is below and above the no significant effect threshold, respectively (<30% inhibition at a concentration of 1 μg/ml))”. Besides, the “d-U937 MTT Assay 24 h” value in series [1] is “− (− and + indicate the result is below and above the no significant effect threshold, respectively (<30% inhibition at a concentration of 1 μg/ml))”. Moreover, the IC50 worked out at 0.495 µM in series [2]; 0.012 µM in series [3]; 0.008 µM in series [4]; 0.0019 µM in series [6]; 0.0013 µM in series [8]; 0.011 µM in series [9]. The IC50 in series [10] was 0.0011 µM. Also, in series [5], the EC50 was found to be 0.0005 µM. For the same compound, the inhibition at 0.04 µg/mL in series [7] came to 94%.
With `COc1ccc(-n2nc(C(C)(C)C)cc2NC(=O)Nc2ccc(Oc3ccnc4[nH]c(=O)[nH]c34)c3ncccc23)cc1` [Example 14, 1-(3-(tert-Butyl)-1-(4-methoxyphenyl)-1H-pyrazol-5-yl)-3-(8-((2-oxo-2,3-dihydro-1H-imidazo[4,5-b]pyridin-7-yl)oxy)quinolin-5-yl)urea], the “d-U937 MTT Assay 4 h” value in [1] is “− (− and + indicate the result is below and above the no significant effect threshold, respectively (<30% inhibition at a concentration of 1 μg/ml))”. Also, the “d-U937 MTT Assay 24 h” value in series [1] is “− (− and + indicate the result is below and above the no significant effect threshold, respectively (<30% inhibition at a concentration of 1 μg/ml))”. The IC50 was 0.18 µM in series [2]; 0.0008 µM in [3]; under 0.002 µM in [4]; 0.675 µM in [6]; 0.163 µM in series [8]; 0.005 µM in series [9]. The IC50 in series [10] turned out to be 0.726 µM. Moreover, the EC50 in [5] was 0.166 µM. For the same compound, the inhibition at 0.04 µg/mL in series [7] was 8%. The “NBEC (HRV) HRV titre Relative anti-viral activity” value in series [7] (at 0.04 μg/mL vs. pleconaril at 0.1 μg/mL) amounted to 1.5.
Turning to `Cc1ccc(-n2nc(C(C)(C)C)cc2NC(=O)Nc2ccc(Oc3ncnc4[nH]c(=O)[nH]c34)c3ccccc23)cc1` [Example 15, 1-(3-(tert-Butyl)-1-(p-tolyl)-1H-pyrazol-5-yl)-3-(4-((8-oxo-8,9-dihydro-7H-purin-6-yl)oxy)naphthalen-1-yl)urea], in [1], the “d-U937 MTT Assay 4 h” value was “− (− and + indicate the result is below and above the no significant effect threshold, respectively (<30% inhibition at a concentration of 1 μg/ml))”. The “d-U937 MTT Assay 24 h” value in series [1] was “− (− and + indicate the result is below and above the no significant effect threshold, respectively (<30% inhibition at a concentration of 1 μg/ml))”. Also, the IC50 is 0.539 µM in series [2]; 0.035 µM in series [3]; 0.036 µM in series [4]; over 0.182 µM in [6]; 0.126 µM in series [8]; 0.03 µM in series [9]. Also, the IC50 in series [10] was found to be 0.164 µM. Besides, the EC50 in series [5] came out at 0.033 µM. For the same compound, in [7], the inhibition at 0.04 µg/mL amounted to 8%.
Consider `CC(C)(C)c1cc(NC(=O)Nc2ccc(Oc3ccnc4[nH]c(=O)cnc34)c3ccccc23)n(-c2ccc(O)cc2)n1` [Example 16, 1-(3-(tert-Butyl)-1-(4-hydroxyphenyl)-1H-pyrazol-5-yl)-3-(4-((3-oxo-3,4-dihydropyrido[2,3-b]pyrazin-8-yl)oxy)naphthalen-1-yl)urea], for which, in series [1], the “d-U937 MTT Assay 4 h” value was “− (− and + indicate the result is below and above the no significant effect threshold, respectively (<30% inhibition at a concentration of 1 μg/ml))”. Moreover, the “d-U937 MTT Assay 24 h” value in [1] is “− (− and + indicate the result is below and above the no significant effect threshold, respectively (<30% inhibition at a concentration of 1 μg/ml))”. The IC50 in series [2] is 0.045 µM; in [3], 0.01 µM; in series [4], 0.018 µM; in [6], 0.172 µM; in [8], 0.116 µM; in series [9] it was 0.004 µM. For the same compound, in series [10], the IC50 amounted to 0.047 µM. In series [5], the EC50 was 0.055 µM. Besides, in [7], the inhibition at 0.04 µg/mL came to 8%.
Take `CC(C)(C)c1cc(NC(=O)Nc2ccc(Oc3ccnc4[nH]c(=O)cnc34)c3ccccc23)n(-c2ccc(CO)cc2)n1` [Example 17, 1-(3-(tert-Butyl)-1-(4-(hydroxymethyl)phenyl)-1H-pyrazol-5-yl)-3-(4-((3-oxo-3,4-dihydropyrido[2,3-b]pyrazin-8-yl)oxy)naphthalen-1-yl)urea]: in series [1], the “d-U937 MTT Assay 4 h” value was “− (− and + indicate the result is below and above the no significant effect threshold, respectively (<30% inhibition at a concentration of 1 μg/ml))”. Further, the “d-U937 MTT Assay 24 h” value in series [1] was “− (− and + indicate the result is below and above the no significant effect threshold, respectively (<30% inhibition at a concentration of 1 μg/ml))”. Moreover, the IC50 came to 0.318 µM in [2]; 0.011 µM in [3]; 0.024 µM in series [4]; 0.014 µM in series [6]; 0.014 µM in [8]; 0.007 µM in [9]. The IC50 in [10] is 0.024 µM. Also, in [5], the EC50 was 0.012 µM. In addition, the inhibition at 0.04 µg/mL in [7] came out at 36%.
Consider `COc1cc(-n2nc(C(C)(C)C)cc2NC(=O)Nc2ccc(Oc3ccnc4[nH]c(=O)cnc34)c3ccccc23)ccc1CO` [Example 18, 1-(3-(tert-Butyl)-1-(4-(hydroxymethyl)-3-methoxyphenyl)-1H-pyrazol-5-yl)-3-(4-((3-oxo-3,4-dihydropyrido[2,3-b]pyrazin-8-yl)oxy)naphthalen-1-yl)urea], for which the “d-U937 MTT Assay 4 h” value in [1] was “− (− and + indicate the result is below and above the no significant effect threshold, respectively (<30% inhibition at a concentration of 1 μg/ml))”. Moreover, the “d-U937 MTT Assay 24 h” value in [1] was “− (− and + indicate the result is below and above the no significant effect threshold, respectively (<30% inhibition at a concentration of 1 μg/ml))”. Further, the IC50 in series [2] is 0.024 µM; in series [3], 0.006 µM; in series [4], 0.005 µM; in [6], 0.015 µM; in [8] it was 0.017 µM; in [9], 0.005 µM. Besides, the IC50 in [10] was determined as 0.0074 µM. Besides, the EC50 in [5] came out at 0.012 µM. Besides, in series [7], the inhibition at 0.04 µg/mL turned out to be 80%.
